Inconclusive results and toxic doses are left out. Cut-off read from the data, not from the text of the source: active = T/C of 150% or more; inactive = T/C below 125%. Peptide text beside a SMILES is read from it. * marks the point of attachment. Boc = CC(C)(C)OC(=O)*; Bn = c1ccc(C*)cc1
Test system: L1210 leukemia ip in BDF1 mice, survival T/C
Assay: NCI In Vivo Anticancer Drug Screen. Data for tumor model L1210 Leukemia (intraperitoneal) in B6D2F1 (BDF1) mice
Conditions: endpoint: mean survival time, higher = longer survival
Method in brief: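 Tumor was transplanted into mice, which were then dosed with test compound or vehicle alone. Survival was recorded for each group, and the treated figure was expressed relative to the control figure.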

[1] = dose: 12.5 mg/kg/injection, schedule: Q01DX009 (ip), vehicle: saline with Tween-80
[2] = dose: 100.0 mg/kg/injection, schedule: Q01DX001 (ip), vehicle: saline
[3] = dose: 200.0 mg/kg/injection, schedule: Q01DX001 (ip), vehicle: saline
[4] = dose: 400.0 mg/kg/injection, schedule: Q01DX001 (ip), vehicle: saline
[5] = dose: 100.0 mg/kg/injection, schedule: Q01DX009 (ip), vehicle: Klucel (hydroxypropylcellulose) (HPC)
[6] = dose: 100.0 mg/kg/injection, schedule: Q04DX003 (ip), vehicle: Klucel (hydroxypropylcellulose) (HPC)
[7] = dose: 200.0 mg/kg/injection, schedule: Q01DX009 (ip), vehicle: Klucel (hydroxypropylcellulose) (HPC)
[8] = dose: 200.0 mg/kg/injection, schedule: Q04DX003 (ip), vehicle: Klucel (hydroxypropylcellulose) (HPC)
[9] = dose: 400.0 mg/kg/injection, schedule: Q01DX009 (ip), vehicle: Klucel (hydroxypropylcellulose) (HPC)
[10] = dose: 400.0 mg/kg/injection, schedule: Q04DX003 (ip), vehicle: Klucel (hydroxypropylcellulose) (HPC)
[11] = dose: 50.0 mg/kg/injection, schedule: Q01DX001 (ip), vehicle: saline
[12] = dose: 100.0 mg/kg/injection, schedule: Q04DX003 (ip), vehicle: saline with Tween-80
[13] = dose: 200.0 mg/kg/injection, schedule: Q04DX003 (ip), vehicle: saline with Tween-80
[14] = dose: 400.0 mg/kg/injection, schedule: Q04DX003 (ip), vehicle: saline with Tween-80

Measured: T/C

CC(=O)C(CN(C)C)c1ccccc1 (configuration not stated)
inactive: [1] 91 % of control | dose: 12.5 mg/kg/injection, schedule: Q04DX002 (ip), vehicle: saline with Tween-80 102 % of control | dose: 25.0 mg/kg/injection, schedule: Q01DX009 (ip), vehicle: saline with Tween-80 98 % of control | dose: 25.0 mg/kg/injection, schedule: Q04DX002 (ip), vehicle: saline with Tween-80 102 % of control | dose: 50.0 mg/kg/injection, schedule: Q01DX009 (ip), vehicle: saline with Tween-80 89 % of control | dose: 50.0 mg/kg/injection, schedule: Q01DX009 (ip), vehicle: saline 103 % of control | dose: 50.0 mg/kg/injection, schedule: Q04DX002 (ip), vehicle: saline with Tween-80 109 % of control | dose: 200.0 mg/kg/injection, schedule: Q01DX009 (ip), vehicle: saline 90 % of control

COC(=O)/C=C(\C)CCC1OC1(C)C (configuration not stated)
inactive: [2] 105 % of control | dose: 100.0 mg/kg/injection, schedule: Q04DX003 (ip), vehicle: acetone 95 % of control | [3] 100 % of control | dose: 200.0 mg/kg/injection, schedule: Q04DX003 (ip), vehicle: acetone 108 % of control | [4] 94 % of control | dose: 400.0 mg/kg/injection, schedule: Q04DX003 (ip), vehicle: acetone 103 % of control

Cc1cccc(C)c1NC(=O)COc1ccc(Cl)cc1
inactive: [5] 105 % of control | [6] 95 % of control | [7] 86 % of control | [8] 93 % of control | [9] 97 % of control | [10] 91 % of control

COc1ccc(/C=N/O)cc1
inactive: [11] 100 % of control | [2] 93 % of control | [3] 100 % of control | [4] 96 % of control

O=C1NC2/C=C/CCCCC12 (configuration not stated)
inactive: dose: 100.0 mg/kg/injection, schedule: Q04DX003 (ip), vehicle: other 95 % of control | dose: 200.0 mg/kg/injection, schedule: Q04DX003 (ip), vehicle: other 101 % of control | dose: 400.0 mg/kg/injection, schedule: Q04DX003 (ip), vehicle: other 92 % of control

COc1ccc(OC)c2c1CCCC2=O
inactive: [11] 96 % of control | [2] 99 % of control | [3] 91 % of control | [4] 96 % of control

CC(C)(C)OC(=O)NC(CO)C(=O)NC(Cc1ccc(OCc2ccccc2)cc1)C(=O)NCC(=O)O (stereo not drawn) (Boc-Ser-Tyr(Bn)-Gly-OH; configuration not given here)
inactive: dose: 50.0 mg/kg/injection, schedule: Q01DX005 (ip), vehicle: saline 100 % of control | dose: 200.0 mg/kg/injection, schedule: Q01DX005 (ip), vehicle: saline 105 % of control | dose: 400.0 mg/kg/injection, schedule: Q01DX005 (ip), vehicle: saline 91 % of control

O=C(Nc1ccc(Cl)cc1Cl)c1cc(Cl)cc(Cl)c1Br
inactive: [12] 101 % of control | [13] 92 % of control | [14] 92 % of control

O=C(/C(Br)=C/c1ccccc1)c1ccccc1
inactive: dose: 50.0 mg/kg/injection, schedule: Q01DX009 (ip), vehicle: other 103 % of control | dose: 100.0 mg/kg/injection, schedule: Q01DX009 (ip), vehicle: other 105 % of control | dose: 200.0 mg/kg/injection, schedule: Q01DX009 (ip), vehicle: other 100 % of control

Cc1cccc(N2CCC3(CC2)C(=O)NC(=O)NC3=O)c1
inactive: [2] 94 % of control | [3] 97 % of control | [4] 100 % of control

C[n+]1c(/C=C/c2ccc(O)c3ccccc23)ccc2ccccc21
inactive: dose: 75.0 mg/kg/injection, schedule: Q01DX001 (ip), vehicle: carboxymethylcellulose (CMC) 92 % of control | dose: 150.0 mg/kg/injection, schedule: Q01DX001 (ip), vehicle: carboxymethylcellulose (CMC) 97 % of control

O=C1/C(=N/O)Cc2ccccc21
inactive: dose: 3.13 mg/kg/injection, schedule: Q01DX009 (ip), vehicle: saline with Tween-80 91 % of control | dose: 6.25 mg/kg/injection, schedule: Q01DX009 (ip), vehicle: saline with Tween-80 91 % of control | [1] 94 % of control | dose: 25.0 mg/kg/injection, schedule: Q04DX003 (ip), vehicle: saline with Tween-80 102 % of control | dose: 50.0 mg/kg/injection, schedule: Q04DX003 (ip), vehicle: saline with Tween-80 94 % of control

CC(=O)OCCS(=O)(=O)CCc1ccccc1
inactive: dose: 62.5 mg/kg/injection, schedule: Q01DX009 (ip), vehicle: Klucel (hydroxypropylcellulose) (HPC) 96 % of control | dose: 125.0 mg/kg/injection, schedule: Q01DX009 (ip), vehicle: Klucel (hydroxypropylcellulose) (HPC) 100 % of control | dose: 250.0 mg/kg/injection, schedule: Q01DX009 (ip), vehicle: Klucel (hydroxypropylcellulose) (HPC) 98 % of control

OCC1(CO)COC2(CCCC2)N1
inactive: [11] 101 % of control | [2] 97 % of control | [3] 95 % of control | [4] 103 % of control

O=N[O-].O=N[O-].[NH2-].[NH2-].[Pt+2]
inactive: dose: 12.5 mg/kg/injection, schedule: Q01DX009 (ip), vehicle: Klucel (hydroxypropylcellulose) (HPC) 103 % of control | dose: 25.0 mg/kg/injection, schedule: Q01DX009 (ip), vehicle: Klucel (hydroxypropylcellulose) (HPC) 106 % of control | dose: 50.0 mg/kg/injection, schedule: Q01DX009 (ip), vehicle: Klucel (hydroxypropylcellulose) (HPC) 106 % of control

NC(N)=NS(=O)(=O)c1ccc(C(N)=NC2CCCCC2)cc1
inactive: [2] 96 % of control | [3] 96 % of control | [4] 90 % of control

O=c1cc(C(F)(F)F)nc(C(F)(F)F)[nH]1
inactive: dose: 29.0 mg/kg/injection, schedule: Q01DX Z (ip), vehicle: methylcellulose (MC) 90 % of control | dose: 45.0 mg/kg/injection, schedule: Q01DX Z (ip), vehicle: methylcellulose (MC) 89 % of control | dose: 67.0 mg/kg/injection, schedule: Q01DX Z (ip), vehicle: methylcellulose (MC) 89 % of control | dose: 100.0 mg/kg/injection, schedule: Q01DX Z (ip), vehicle: methylcellulose (MC) 88 % of control

CN1CCCN(C(c2ccccc2)c2ccc(Cl)cc2)CC1 (configuration not stated)
inactive: dose: 7.81 mg/kg/injection, schedule: Q01DX009 (ip), vehicle: saline 96 % of control | dose: 15.62 mg/kg/injection, schedule: Q01DX009 (ip), vehicle: saline 105 % of control | dose: 31.25 mg/kg/injection, schedule: Q01DX009 (ip), vehicle: saline 96 % of control

CC1C=CC(C)C(C(=O)c2ccccc2)C1C(=O)c1ccccc1 (configuration not stated)
inactive: [5] 93 % of control | dose: 100.0 mg/kg/injection, schedule: Q01DX009 (ip), vehicle: saline with Tween-80 106 % of control | [6] 89 % of control | [7] 94 % of control | dose: 200.0 mg/kg/injection, schedule: Q01DX009 (ip), vehicle: saline with Tween-80 97 % of control | [8] 88 % of control | [9] 92 % of control | dose: 400.0 mg/kg/injection, schedule: Q01DX009 (ip), vehicle: saline with Tween-80 93 % of control | [10] 88 % of control

CCOC(=O)c1nc[nH]c1N=[N+]=[N-]
inactive: dose: 100.0 mg/kg/injection, schedule: Q01DX001 (ip), vehicle: other 106 % of control | dose: 200.0 mg/kg/injection, schedule: Q01DX001 (ip), vehicle: other 97 % of control | dose: 400.0 mg/kg/injection, schedule: Q01DX001 (ip), vehicle: other 95 % of control

CC1=CC2=NC(=O)C(c3ccccc3)C(=O)N2C=C1 (configuration not stated)
inactive: [5] 90 % of control | [6] 90 % of control | [7] 100 % of control | [8] 103 % of control | [9] 86 % of control | [10] 97 % of control

C[C@]12CC[C@H](OC(=O)Cc3ccc(N(CCCl)CCCl)cc3)CC1=CC[C@@H]1[C@@H]2CC[C@]2(C)C(=O)CC[C@@H]12
inactive: [12] 88 % of control | [13] 88 % of control | [14] 88 % of control

Cc1cc(OC(=O)NC2CCCCC2)cc(C)c1Cl
inactive: [5] 95 % of control | [7] 95 % of control | [9] 94 % of control

COc1ccccc1CN1CCCN(Cc2ccccc2OC)C1
inactive: dose: 100.0 mg/kg/injection, schedule: Q01DX001 (ip), vehicle: carboxymethylcellulose (CMC) 97 % of control | dose: 200.0 mg/kg/injection, schedule: Q01DX001 (ip), vehicle: carboxymethylcellulose (CMC) 105 % of control | dose: 400.0 mg/kg/injection, schedule: Q01DX001 (ip), vehicle: carboxymethylcellulose (CMC) 97 % of control

Reference: PubChem BioAssay AID248 (DTP/NCI, 2004)
